How the values were obtained:
Rattus norvegicus [1] = species: Rattus norvegicus; test: Biodistribution of [123I]-label in rat blood was reported at 2 hr post injection. Value shown is %ID/g of tissue; type: ADME, organism-based; settings: in vivo
Rattus norvegicus [2] = species: Rattus norvegicus; test: Biodistribution of [123I]-label in rat brain was reported at 24 hr post injection. Value shown is %ID/g of tissue; type: ADME, organism-based; settings: in vivo
Rattus norvegicus [3] = species: Rattus norvegicus; test: Biodistribution of [123I]-label in rat brain was reported at 4 hr post injection. Value shown is %ID/g of tissue; type: ADME, organism-based; settings: in vivo
Rattus norvegicus [4] = species: Rattus norvegicus; test: Biodistribution of [123I]-label in rat lung was reported at 2 hr post injection. Value shown is %ID/g of tissue; type: ADME, organism-based; settings: in vivo
Rattus norvegicus [5] = species: Rattus norvegicus; test: Biodistribution of [123I]-label in rat spleen was reported at 24 h post injection. Value shown is %ID/g of tissue; type: ADME, organism-based; settings: in vivo
Rattus norvegicus [6] = species: Rattus norvegicus; test: Biodistribution of [123I]-label in rat stomach was reported at 1 h post injection. Value shown is %ID/g of tissue; type: ADME, organism-based; settings: in vivo
Rattus norvegicus [7] = species: Rattus norvegicus; test: Biodistribution of [123I]-label in rat stomach was reported at 2 hr post injection. Value shown is %ID/g of tissue; type: ADME, organism-based; settings: in vivo
Rattus norvegicus [8] = species: Rattus norvegicus; test: Biodistribution of [123I]-label in rat stomach was reported at 24 hr post injection. Value shown is %ID/g of tissue; type: ADME, organism-based; settings: in vivo
Rattus norvegicus [9] = species: Rattus norvegicus; test: Biodistribution of [123I]-label in rat stomach was reported at 4 hr post injection. Value shown is %ID/g of tissue; type: ADME, organism-based; settings: in vivo
Rattus norvegicus [10] = species: Rattus norvegicus; test: Distribution of [123I]-label in rat brain (cerebellum) was reported at 20 min post injection. Value shown is %ID/g of tissue; type: ADME, organism-based; settings: in vivo
Rattus norvegicus [11] = species: Rattus norvegicus; test: Distribution of [123I]-label in rat brain (cerebellum) was reported at 60 min post injection. Value shown is %ID/g of tissue; type: ADME, organism-based; settings: in vivo, 1 h
Rattus norvegicus [12] = species: Rattus norvegicus; test: Distribution of [123I]-label in rat brain (diencephalon) was reported at 20 min post injection. Value shown is %ID/g of tissue; type: ADME, organism-based; settings: in vivo
Rattus norvegicus [13] = species: Rattus norvegicus; test: Distribution of [123I]-label in rat brain (frontal cortex) was reported at 60 min post injection. Value shown is %ID/g of tissue; type: ADME, organism-based; settings: in vivo, 1 h
Rattus norvegicus [14] = species: Rattus norvegicus; test: Distribution of [123I]-label in rat brain (hippocampus) was reported at 20 min post injection. Value shown is %ID/g of tissue; type: ADME, organism-based; settings: in vivo
Rattus norvegicus [15] = species: Rattus norvegicus; test: Distribution of [123I]-label in rat brain (hippocampus) was reported at 60 min post injection. Value shown is %ID/g of tissue; type: ADME, organism-based; settings: in vivo, 1 h
Rattus norvegicus [16] = species: Rattus norvegicus; test: Distribution of [123I]-label in rat brain (midbrain) was reported at 20 min post injection. Value shown is %ID/g of tissue; type: ADME, organism-based; settings: in vivo
Rattus norvegicus [17] = species: Rattus norvegicus; test: Distribution of [123I]-label in rat brain (posterior cortex) was reported at 60 min post injection. Value shown is %ID/g of tissue; type: ADME, organism-based; settings: in vivo, 1 h
Rattus norvegicus [18] = species: Rattus norvegicus; test: Distribution of [123I]-label in rat brain (striatum) was reported at 20 min post injection. Value shown is %ID/g of tissue; type: ADME, organism-based; settings: in vivo
Rattus norvegicus [19] = species: Rattus norvegicus; test: Distribution of [123I]-label in rat brain (striatum) was reported at 60 min post injection. Value shown is %ID/g of tissue; type: ADME, organism-based; settings: in vivo, 1 h
Rattus norvegicus [20] = species: Rattus norvegicus; test: Biodistribution of [123I]-label in rat intestine was reported at 2 hr post injection. Value shown is %ID/g of tissue; type: ADME, organism-based; settings: in vivo
Rattus norvegicus [21] = species: Rattus norvegicus; test: Biodistribution of [123I]-label in rat intestine was reported at 24 hr post injection. Value shown is %ID/g of tissue; type: ADME, organism-based; settings: in vivo
Rattus norvegicus [22] = species: Rattus norvegicus; test: Biodistribution of [123I]-label in rat intestine was reported at 4 hr post injection. Value shown is %ID/g of tissue; type: ADME, organism-based; settings: in vivo
Rattus norvegicus [23] = species: Rattus norvegicus; test: Biodistribution of [123I]-label in rat kidneys was reported at 0.33 hr post injection. Value shown is %ID/g of tissue; type: ADME, organism-based, Kidney; settings: in vivo
Rattus norvegicus [24] = species: Rattus norvegicus; test: Biodistribution of [123I]-label in rat kidneys was reported at 1 h post injection. Value shown is %ID/g of tissue; type: ADME, organism-based, Kidney; settings: in vivo
Rattus norvegicus [25] = species: Rattus norvegicus; test: Biodistribution of [123I]-label in rat kidneys was reported at 2 hr post injection. Value shown is %ID/g of tissue; type: ADME, organism-based, Kidney; settings: in vivo
Rattus norvegicus [26] = species: Rattus norvegicus; test: Biodistribution of [123I]-label in rat liver was reported at 1 hr post injection. Value shown is %ID/g of tissue; type: ADME, organism-based; settings: in vivo
Rattus norvegicus [27] = species: Rattus norvegicus; test: Biodistribution of [123I]-label in rat lung was reported at 24 hr post injection. Value shown is %ID/g of tissue; type: ADME, organism-based; settings: in vivo
Rattus norvegicus [28] = species: Rattus norvegicus; test: Biodistribution of [123I]-label in rat lung was reported at 4 hr post injection. Value shown is %ID/g of tissue; type: ADME, organism-based; settings: in vivo
Rattus norvegicus [29] = species: Rattus norvegicus; test: Biodistribution of [123I]-label in rat brain was reported at 4 hr post injection. Value shown is %ID/organ; type: ADME, organism-based; settings: in vivo
Rattus norvegicus [30] = species: Rattus norvegicus; test: Biodistribution of [123I]-label in rat thyroid was reported at 0.33 hr post injection. Value shown is %ID/organ; type: ADME, organism-based, Thyroid gland; settings: in vivo
Rattus norvegicus [31] = species: Rattus norvegicus; test: Biodistribution of [123I]-label in rat thyroid was reported at 1 hr post injection. Value shown is %ID/organ; type: ADME, organism-based, Thyroid gland; settings: in vivo
Rattus norvegicus [32] = species: Rattus norvegicus; test: Biodistribution of [123I]-label in rat thyroid was reported at 24 hr post injection. Value shown is %ID/organ; type: ADME, organism-based, Thyroid gland; settings: in vivo
Rattus norvegicus [33] = species: Rattus norvegicus; test: Biodistribution of [123I]-label in rat thyroid was reported at 4 hr post injection. Value shown is %ID/organ; type: ADME, organism-based, Thyroid gland; settings: in vivo
Sigma 2 receptor = test: Receptor binding affinity against Sigma-2 receptor from guinea pig membranes; parameters: species or system Cavia porcellus

SMILES: N#Cc1ccc(OCC2CCN(C/C=C/I)CC2)cc1
- ID/g (Rattus norvegicus [1]): 0.03%
- ID/g (Rattus norvegicus [2]): 0.84%
- ID/g (Rattus norvegicus [3]): 1.07%
- ID/g (Rattus norvegicus [4]): 3.75%
- ID/g (Rattus norvegicus [5]): 0.87%
- ID/g (Rattus norvegicus [6]): 0.65%
- ID/g (Rattus norvegicus [7]): 0.3%
- ID/g (Rattus norvegicus [8]): 0.18%
- ID/g (Rattus norvegicus [9]): 0.27%
- ID/g (Rattus norvegicus [10]): 1.01%
- ID/g (Rattus norvegicus [11]): 1.09%
- ID/g (Rattus norvegicus [12]): 1.03%
- ID/g (Rattus norvegicus [13]): 1.29%
- ID/g (Rattus norvegicus [14]): 1.02%
- ID/g (Rattus norvegicus [15]): 1.06%
- ID/g (Rattus norvegicus [16]): 1.06%
- ID/g (Rattus norvegicus [17]): 1.51%
- ID/g (Rattus norvegicus [18]): 1.17%
- ID/g (Rattus norvegicus [19]): 1.13%
- ID/g (Rattus norvegicus [20]): 0.84%
- ID/g (Rattus norvegicus [21]): 0.74%
- ID/g (Rattus norvegicus [22]): 0.81%
- ID/g (Rattus norvegicus [23]): 1.64%
- ID/g (Rattus norvegicus [24]): 1.64%
- ID/g (Rattus norvegicus [25]): 1.3%
- ID/g (Rattus norvegicus [26]): 0.45%
- ID/g (Rattus norvegicus [27]): 0.79%
- ID/g (Rattus norvegicus [28]): 3.14%
- ID (Rattus norvegicus [29]): 2.03%
- ID (Rattus norvegicus [30]): 0.09%
- ID (Rattus norvegicus [31]): 0.3%
- ID (Rattus norvegicus [32]): 1.19%
- ID (Rattus norvegicus [33]): 0.34%
- Ki (Sigma 2 receptor): 38.8 nM
